What was measured:
[1] = tested on: HT-22 cells; assay: Extracellular flux analysis (Seahorse), oxygen consumption rate; format: cell-based, mouse
Procedure: Cellular Oxygen Consumption Rate (OCR) was measured by using an XFe96 extracellular flux analyzer (Seahorse Bioscience, Billerica, MA, USA) which also entailed the mitochondrial stress test as described previously. HT-22 cells (10,000 cells/well) were seeded onto the XFe96-well cell culture microplate and incubated at 37 °C, 5% CO2. 24 h before the assay, the growth medium was replaced with a fresh medium containing either DMSO 1%, erastin 1 µM, CE3F4 alone, ESI-05 alone or a co-treatment of erastin with either CE3F4 or ESI-05. Cells in 180 μL of assay non-buffered DMEM medium supplemented with 2 mM glutamine, 4.5 g/L glucose and 1 mM pyruvate, pH 7.35 were incubated for 1 h in a CO2 free incubator at 37 °C. Basal respiration was measured before injecting the inhibitors that included; oligomycin (4 μM; port A)—an ATP synthase inhibitor; 2,4-dinitrophenol (DNP) (Sigma–Aldrich Chemie GmbH, Steinheim, Germany, #34334) (50 μM; port B)—a mitochondrial oxidative phosphorylation uncoupler; and rotenone (Sigma–Aldrich Chemie GmbH, Steinheim, Germany, #R8875) together with antimycin A (Sigma–Aldrich Chemie GmbH, Steinheim, Germany, #A8674) 0.1 μM and 1 μM; port C)—complex I and complex III inhibitors. By using the BCA assay, OCR measurements were normalized to the protein amount in every well. Three independent experiments with six wells per condition were performed, and a one-way ANOVA test was used to determine statistical significance among different groups.

[2] = tested on: HT-22 cells; assay: Brightfield images of cell morphology; format: cell-based, mouse; settings: 100 μM CE3F4 + erastin 1 μM
[3] = tested on: HT-22 cells; assay: xCELLigence real-time cell impedance measurement; format: cell-based, mouse; settings: ≥30 µM CE3F4 (30 and 100 μM), erastin 1 μM
Procedure: Cell viability and metabolic activity of cells was first assessed using a colorimetric 3-(4,5-dimethylthiazol-2-yl)-2,5-diphenyltetrazolium Bromide (MTT) (Sigma–Aldrich Chemie GmbH, Steinheim, Germany, #M5655) reduction assay. Cells in a 96-well plate format (8–10,000 cells/well) were incubated with the MTT solution (0.5 mg/mL) for a maximum of 1 h at 37 °C. Afterward, the MTT-containing solution was entirely removed, and the 96-well plate was incubated at −80 °C for at least 2 h. To allow formazan to uniformly disperse in the medium, dimethyl sulfoxide (DMSO) (Sigma–Aldrich Chemie GmbH, Steinheim, Germany, #D8418, Lot# SHBH9942) was administered to the cells for 1 h at 37 °C with continuous shaking. The absorbance values were determined by Synergy™H1 (Bad Friedrichshall, Germany) Hybrid MultiMode Reader at 570 nm with a 630 nm reference filter. The absorbance values of untreated healthy cells or cells treated with DMSO 1% (used as a solvent for various pharmacological applications) were regarded as 100% of cell viability. […] HT-22 cells were treated with the following conditions: control condition (solvent), drug of interest, erastin, and pre- or co-treatment with erastin and drug of interest. […] Continuous cell monitoring was performed by using an E-plate 96 and the cellular impedance or cell resistance was assessed every 15 min for 24 h.

[4] = tested on: Epac1; settings: CE3F4, Epac1 inhibitor; cited from earlier work
[5] = tested on: HT-22 cells; assay: Soluble ROS, CM-DCF FACS; format: cell-based, mouse
Procedure: Soluble ROS was evaluated by CM-DCF fluorescent dye (Invitrogen, Oregon City, OR, USA). CM-DCF passively diffuses into cells, and reacts with glutathione and other thiols following cleavage by intracellular esterases, which in turn exposes the thiol-reactive chloromethyl group. The oxidation that follows results in a fluorescent adduct that is ensnared within the cell. The higher the fluorescence, the more cellular ROS is produced in the cells.

[6] = CE3F4 + erastin 1 μM vs erastin alone

SMILES: CC1CCc2c(cc(Br)c(F)c2Br)N1C=O (stereo not drawn) [CE3F4]
- maximal respiration ([1]; 100 μM CE3F4 alone): increased maximal respiration
- ATP-linked OCR [1, 6]: did not reach statistical significance
- basal OCR [1, 6]: did not reach statistical significance
- maximal OCR [1, 6]: significantly increased
- effect on erastin-induced alteration in cell morphology [2]: prevented
- protection against erastin-induced cell death (cell impedance) [3]: markedly prevented erastin-induced cell death
- IC50 [4]: 23 ± 3 µM
- intracellular ROS production (CM-DCF) ([5]; 100 μM CE3F4 + erastin vs erastin alone, not restored to control levels): significant decrease in intracellular ROS production
- total intracellular ROS production (CM-DCF) ([5]; 100 μM CE3F4 alone): did not influence the amount of total intracellular ROS production

— PMC8868285, “Pharmacological Inhibition of Epac1 Averts Ferroptosis Cell Death by Preserving Mitochondrial Integrity” (Antioxidants, 2022)
